Read-outs that look alike come from different tables or passages of the source. Peptide text beside a SMILES is read from it.
Assays:
[1] = target: T1, human δ opioid receptors (hDOR) (Homo sapiens, UniProt P41143); test: Radioligand competition binding, [3H]DPDPE, hDOR membranes
T1 construct: expressed in transfected cells; host or cells: HN9.10 neuroblastoma cell line, pCDNA3, neomycin-selected clones

[2] = target: T1, human δ opioid receptors (hDOR); test: [35S]GTP-γ-S binding assay, hDOR; type: biochemical
[3] = target: T2, rat μ opioid receptors (rMOR) (Rattus norvegicus, UniProt P33535); test: biochemical; type: biochemical; settings: for EC50: read-out: GTP rMOR EC50
T2 construct: expressed in transfected cells; host or cells: HN9.10 neuroblastoma cell line, pCDNA3, neomycin-selected clones

[4] = target: T3, δ opioid receptors (MVD) (Mus musculus, UniProt P32300); test: Mouse isolated vas deferens (MVD) assay, opioid agonist
T3 construct: from tissue; host or cells: mouse (ICR) isolated vas deferens

[5] = test system: μ opioid receptors (GPI); test: Guinea pig isolated ileum (GPI) assay, opioid agonist;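 further: inhibition of electrically evoked contractions (0.1 Hz, 0.4 msec, supramaximal voltage) in organ baths at 37 °C, contraction height 3 min after each cumulative dose versus the 1 min before dosing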
[6] = target: T4, Substance P receptors (guinea pig NK1) (Cavia porcellus, UniProt P30547); test: Guinea pig isolated ileum (GPI) assay with substance P stimulation in presence of 1 μM naloxone
T4 construct: from tissue; host or cells: guinea pig (Hartley) ileum LMMP, 1 μM naloxone present

[7] = target: T5, human NK1 receptor (hNK1) (Homo sapiens, UniProt P25103); test: Radioligand competition binding, [3H]-Substance P, hNK1
T5 construct: expressed in transfected cells

[8] = target: T6, rat NK1 (rNK1) receptor (Rattus norvegicus, UniProt P14600); test: Radioligand competition binding, [3H]substance P, rNK1/CHO membranes
T6 construct: expressed in transfected cells; host or cells: CHO (rNK-1/CHO cell line from Dr. James Krause)

[9] = Table 32, read-out: GTP hDOR EC50
[10] = Table 32, read-out: GTP hDOR EMax
[11] = Table 32, read-out: GTP rMOR EMax
[12] = Table 35, read-out: GPI/LMMP μ-agonist IC50
[13] = GPI/LMMP SP antagonist Ke (nM), Table 35
[14] = Table 36, read-out: GPI μ-agonist IC50
[15] = GPI SP-antagonist Ke (nM), Table 36
[16] = Substance P antagonist, GPI, Ke, in the presence of 1 μM naloxone
[17] = Table 39, read-out: GTP binding hDOR Emax
[18] = Table 39, read-out: GTP binding rMOR Emax
[19] = Table 39, read-out: GTP binding hDOR EC50
[20] = Table 39, read-out: GPI/LMMP opioid(mu) agonist (IC50; nM)

T6 sequence (P14600 whole entry): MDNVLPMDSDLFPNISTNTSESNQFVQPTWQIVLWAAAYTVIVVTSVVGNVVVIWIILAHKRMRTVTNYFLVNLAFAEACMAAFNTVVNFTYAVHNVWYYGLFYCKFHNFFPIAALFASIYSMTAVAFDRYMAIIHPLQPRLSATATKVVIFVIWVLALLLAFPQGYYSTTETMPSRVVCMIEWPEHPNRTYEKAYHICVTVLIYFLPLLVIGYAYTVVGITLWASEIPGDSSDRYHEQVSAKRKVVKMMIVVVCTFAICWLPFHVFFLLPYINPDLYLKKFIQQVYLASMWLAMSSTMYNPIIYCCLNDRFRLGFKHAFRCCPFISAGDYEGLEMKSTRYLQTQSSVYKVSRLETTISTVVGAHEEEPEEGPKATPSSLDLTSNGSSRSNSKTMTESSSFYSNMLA
T4 sequence (P30547 whole entry): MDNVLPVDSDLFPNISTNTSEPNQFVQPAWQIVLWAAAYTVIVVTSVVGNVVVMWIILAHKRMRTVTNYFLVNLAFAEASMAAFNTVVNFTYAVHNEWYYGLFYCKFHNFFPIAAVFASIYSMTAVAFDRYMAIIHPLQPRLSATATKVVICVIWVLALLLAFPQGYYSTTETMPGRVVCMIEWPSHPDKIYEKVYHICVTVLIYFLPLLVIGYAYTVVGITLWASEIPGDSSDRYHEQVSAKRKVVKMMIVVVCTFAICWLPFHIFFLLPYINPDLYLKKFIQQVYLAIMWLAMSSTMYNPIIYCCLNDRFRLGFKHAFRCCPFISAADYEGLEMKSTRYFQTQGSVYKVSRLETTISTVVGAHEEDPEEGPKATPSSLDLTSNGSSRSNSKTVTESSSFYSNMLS
T3 sequence (P32300 whole entry): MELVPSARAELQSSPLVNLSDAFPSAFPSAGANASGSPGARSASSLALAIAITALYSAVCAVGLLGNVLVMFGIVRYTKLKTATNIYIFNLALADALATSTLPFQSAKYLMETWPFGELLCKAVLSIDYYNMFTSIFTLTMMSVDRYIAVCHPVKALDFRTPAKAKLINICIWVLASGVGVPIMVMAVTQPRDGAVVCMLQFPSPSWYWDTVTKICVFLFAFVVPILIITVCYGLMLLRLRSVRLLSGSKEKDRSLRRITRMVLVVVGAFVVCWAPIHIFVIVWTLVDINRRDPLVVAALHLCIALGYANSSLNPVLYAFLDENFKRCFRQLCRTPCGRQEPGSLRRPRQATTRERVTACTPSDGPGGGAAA
T5 sequence (P25103 whole entry): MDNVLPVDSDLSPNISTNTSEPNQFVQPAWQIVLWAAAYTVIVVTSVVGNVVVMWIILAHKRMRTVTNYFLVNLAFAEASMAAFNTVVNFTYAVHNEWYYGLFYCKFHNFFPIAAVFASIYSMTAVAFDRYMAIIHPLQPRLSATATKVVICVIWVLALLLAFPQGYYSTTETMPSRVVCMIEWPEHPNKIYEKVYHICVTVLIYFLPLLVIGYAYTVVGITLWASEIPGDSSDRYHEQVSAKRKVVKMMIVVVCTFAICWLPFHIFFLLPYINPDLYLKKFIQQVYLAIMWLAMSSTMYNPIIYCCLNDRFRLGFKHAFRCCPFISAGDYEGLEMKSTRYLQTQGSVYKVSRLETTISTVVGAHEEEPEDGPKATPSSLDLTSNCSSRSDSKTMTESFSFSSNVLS
T2 sequence (P33535 whole entry): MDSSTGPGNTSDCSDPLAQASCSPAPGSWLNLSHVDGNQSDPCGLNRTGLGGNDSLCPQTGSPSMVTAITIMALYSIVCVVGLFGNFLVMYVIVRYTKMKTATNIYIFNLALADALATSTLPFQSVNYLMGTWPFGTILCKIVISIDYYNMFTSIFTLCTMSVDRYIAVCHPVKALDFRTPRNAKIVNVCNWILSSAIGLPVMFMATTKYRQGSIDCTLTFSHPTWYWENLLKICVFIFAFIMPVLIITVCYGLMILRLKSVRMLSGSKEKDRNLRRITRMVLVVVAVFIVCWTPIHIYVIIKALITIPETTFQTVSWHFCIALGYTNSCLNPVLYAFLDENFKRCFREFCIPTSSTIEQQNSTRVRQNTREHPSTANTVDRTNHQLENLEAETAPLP
T1 sequence (P41143 whole entry): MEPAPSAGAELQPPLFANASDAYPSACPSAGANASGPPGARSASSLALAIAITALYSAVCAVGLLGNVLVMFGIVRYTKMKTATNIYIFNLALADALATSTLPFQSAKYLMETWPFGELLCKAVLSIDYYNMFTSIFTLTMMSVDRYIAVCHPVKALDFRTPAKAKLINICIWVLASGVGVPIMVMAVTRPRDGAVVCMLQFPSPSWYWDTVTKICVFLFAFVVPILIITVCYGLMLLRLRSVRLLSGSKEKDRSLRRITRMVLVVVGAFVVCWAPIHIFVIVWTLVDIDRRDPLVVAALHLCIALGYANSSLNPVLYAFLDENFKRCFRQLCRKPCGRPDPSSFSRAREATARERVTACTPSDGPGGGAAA

## C[C@H](NC(=O)[C@H](Cc1ccccc1)NC(=O)CNC(=O)[C@@H](C)NC(=O)[C@@H](N)Cc1ccc(O)cc1)C(=O)N[C@@H](Cc1c[nH]c2ccccc12)C(=O)OCc1cc(C(F)(F)F)cc(C(F)(F)F)c1 [NP31] (HELM PEPTIDE1{Y.[dA].G.F.A.W.[FC(F)(F)c1cc(CO[*:1])cc(C(F)(F)F)c1]}$$$$V2.0; N-terminus assumed)
[1]
  Ki: 1.2 nM
[2]; [9]
  EC50: 3.3 nM
[2]; [10]
  Emax: 91%
[3]; Table 32
  EC50: 11 nM
[3]; [11]
  Emax: 50%
[4]
  IC50: 6.4 nM
[5]; [12]
  IC50: 401 nM
[6]; [13]
  Kb: 18.6 nM

## CC[C@H](NC(=O)[C@H](Cc1ccccc1)NC(=O)CNC(=O)[C@@H](C)NC(=O)[C@@H](N)Cc1ccc(O)cc1)C(=O)N[C@@H](Cc1c[nH]c2ccccc12)C(=O)OCc1cc(C(F)(F)F)cc(C(F)(F)F)c1 [NP33] (HELM PEPTIDE1{Y.[dA].G.F.[Abu].W.[FC(F)(F)c1cc(CO[*:1])cc(C(F)(F)F)c1]}$$$$V2.0; N-terminus assumed)
[1]
  Ki: 1.6 nM
[2]; [9]
  EC50: 2.9 nM
[2]; [10]
  Emax: 43%
[3]; Table 32
  EC50: 8.6 nM
[3]; [11]
  Emax: 32%
[4]
  IC50: 12.4 nM
[5]; [12]
  IC50: 600 nM
[6]; [13]
  Kb: 5.6 nM

## C[C@@H](NC(=O)[C@@H](N)Cc1ccc(O)cc1)C(=O)NCC(=O)N[C@@H](Cc1ccccc1)C(=O)NCCCC(=O)N[C@@H](Cc1c[nH]c2ccccc12)C(=O)OCc1cc(C(F)(F)F)cc(C(F)(F)F)c1 [NP34] (HELM PEPTIDE1{Y.[dA].G.F.[O=C(CCCN[*:1])[*:2]].W.[FC(F)(F)c1cc(CO[*:1])cc(C(F)(F)F)c1]}$$$$V2.0; N-terminus assumed)
[7]
  Ki: 0.001 nM
[2]; [9]
  EC50: 16.5 nM
[2]; [10]
  Emax: 40%
[3]; Table 32
  EC50: 17.4 nM
[3]; [11]
  Emax: 27%
[4]
  IC50: 67.9 nM
[5]; [12]
  IC50: 200 nM
[6]; [13]
  Kb: 0.96 nM

## C[C@@H](NC(=O)[C@@H](N)Cc1ccc(O)cc1)C(=O)NCC(=O)N[C@@H](Cc1ccccc1)C(=O)N1CCC[C@H]1C(=O)N[C@@H](Cc1c[nH]c2ccccc12)C(=O)OCc1cc(C(F)(F)F)cc(C(F)(F)F)c1 [NP39] (HELM PEPTIDE1{Y.[dA].G.F.P.W.[FC(F)(F)c1cc(CO[*:1])cc(C(F)(F)F)c1]}$$$$V2.0; N-terminus assumed)
[7]
  Ki: 0.1 nM
[5]; [12]
  IC50: 259 nM

## C[C@@H](NC(=O)[C@@H](N)Cc1ccc(O)cc1)C(=O)NCC(=O)N[C@@H](Cc1ccccc1)C(=O)NC(C)(C)C(=O)N[C@@H](Cc1c[nH]c2ccccc12)C(=O)OCc1cc(C(F)(F)F)cc(C(F)(F)F)c1 [NP41] (HELM PEPTIDE1{Y.[dA].G.F.[Aib].W.[FC(F)(F)c1cc(CO[*:1])cc(C(F)(F)F)c1]}$$$$V2.0; N-terminus assumed)
[8]; Affinity (Ki, nM) rNK1, Table 32
  Ki: 3.4 nM
[7]
  Ki: 0.008 nM
[2]; [9]
  EC50: 37.7 nM
[2]; [10]
  Emax: 65%
[3]; Table 32
  EC50: 105 nM
[3]; [11]
  Emax: 36%
[4]
  IC50: 36.2 nM

## N[C@@H](Cc1ccc(O)cc1)C(=O)NCC(=O)N[C@@H](Cc1c[nH]c2ccccc12)C(=O)OCc1cc(C(F)(F)F)cc(C(F)(F)F)c1 [NP42]
[8]; Ki (nM) rNK1, Table 33
  Ki: 0.36 nM
[7]
  Ki: 0.003 nM
[4]; Table 36, at 1 μM
  MVD δ-agonist, % at 1 μM: 7.5% at 1 μM
[5]; Table 36, at 1 μM
  GPI μ-agonist, % at 1 μM: 2.6% at 1 μM
[6]; Table 36, @ 1 μM
  GPI SP-antagonist activity @ 1 μM: None @ 1 μM

## C[C@@H](NC(=O)[C@@H](N)Cc1ccc(O)cc1)C(=O)NCC(=O)N[C@@H](Cc1c[nH]c2ccccc12)C(=O)OCc1cc(C(F)(F)F)cc(C(F)(F)F)c1 [NP44] (HELM PEPTIDE1{Y.[dA].G.W.[FC(F)(F)c1cc(CO[*:1])cc(C(F)(F)F)c1]}$$$$V2.0; N-terminus assumed)
[8]; Ki (nM) rNK1, Table 33
  Ki: 3.4 nM
[4]
  IC50: 303 nM
[5]; [14]
  IC50: 844 nM
[6]; [15]
  Kb: 5 nM

## C[C@@H](NC(=O)[C@@H](N)Cc1ccc(O)cc1)C(=O)NCC(=O)N[C@@H](Cc1ccc(F)cc1)C(=O)OCc1cc(C(F)(F)F)cc(C(F)(F)F)c1 [NP62]
[7]
  Ki: 0.2 nM
[4]
  IC50: 184 nM
[5]; [14]
  IC50: 208 nM
[6]; [15]
  Kb: 51.8 nM

## CC(C)C[C@H](NC(=O)[C@@H]1CCCN1C(=O)[C@H](Cc1ccccc1)NC(=O)CNC(=O)[C@@H](C)NC(=O)[C@@H](N)Cc1ccc(O)cc1)C(=O)N[C@@H](Cc1c[nH]c2ccccc12)C(=O)OCc1cc(C(F)(F)F)cc(C(F)(F)F)c1 [TY001, H-Tyr-DAla-Gly-Phe-Pro-Leu-Trp-O-3,5-Bzl(CF3)2]
[8]; Affinity rNK1 (Ki; nM), Table 39
  Ki: 1.56 nM
[8]; LogIC50, rNK1, [3H]Substance P, Table 6, logarithm of IC50 (negative), CHO cell membranes
  IC50: 5.01 nM
[8]; read-out: Ki, rNK1
  Ki: 1.6 nM
[7]
  IC50: 0.00501 nM
  Ki: 0.0023 nM
[7]; Ki rNK1 vs Ki hNK1
  species difference between affinities at rNK1 and hNK1: 700 fold
[6]; [16]
  Kb: 3.6 ± 1.1 nM

## CC(C)C[C@H](NC(=O)[C@@H]1CCCN1C(=O)[C@H](Cc1ccccc1)NC(=O)[C@H](Cc1ccccc1)NC(=O)CNC(=O)[C@@H](C)NC(=O)[C@@H](N)Cc1ccc(O)cc1)C(=O)N[C@@H](Cc1c[nH]c2ccccc12)C(=O)OCc1ccccc1 [TY014] (HELM PEPTIDE1{Y.[dA].G.F.F.P.L.W.[c1ccc(CO[*:1])cc1]}$$$$V2.0; N-terminus assumed)
[1]
  Ki: 11.5 nM
[2]; [17]
  Emax: 137%
[3]; [18]
  Emax: 72.3%

## CCCC[C@H](NC(=O)[C@H](Cc1ccccc1)NC(=O)CNC(=O)[C@@H](C)NC(=O)[C@@H](N)Cc1ccc(O)cc1)C(=O)N1CCC[C@H]1C(=O)N[C@@H](CC(C)C)C(=O)N[C@@H](Cc1c[nH]c2ccccc12)C(=O)OCc1cc(C(F)(F)F)cc(C(F)(F)F)c1 [TY018, H-Tyr-D-Ala-Gly-Phe-Nle-Pro-Leu-Trp-O-3,5-Bzl(CF3)2]
[1]; membranes from transfected HN9.10 cells
  LogIC50, hDOR, [3H]DPDPE: −8.42 ± 0.15
[8]; Ki, rNK1, text
  Ki: 14.8 nM
[8]; LogIC50, rNK1, Substance P radioligand, membranes from transfected CHO cells
  IC50: 13.5 nM
[2]
  LogEC50, hDOR, [35S]GTP-γ-S binding: −8.40 ± 0.11
[2]; Table 27, read-out: GTP binding hDOR EC50
  EC50: 4 nM
[2]; Table 27, read-out: GTP binding hDOR Emax (%)
  Emax: 131%
[2]; [19]
  EC50: 4 nM
[2]; [17]
  Emax: 131%
[2]; net total bound/basal binding × 100, read-out: Emax, hDOR, [35S]GTP-γ-S binding
  Emax: 129%
[2]; read-out: EC50, hDOR, [35S]GTP-γ-S binding
  EC50: 4 nM
[4]
  IC50: 16.8 ± 2.4 nM
[4]; Table 39, read-out: MVD opioid(delta) agonist (IC50; nM)
  IC50: 16.8 nM
[5]; Table 28, read-out: GPI/LMMP Opioid(m) Agonist (IC50; nM)
  IC50: 372 nM
[5]; [20]
  IC50: 372 nM
[5]; electrically stimulated isolated tissue, read-out: GPI (μ), IC50
  IC50: 372 ± 65 nM
[6]; [16]
  Kb: 7.9 ± 1.9 nM
[6]; read-out: Substance P GPI agonist (A50), at 1 μM, contraction relative to initial muscle contraction with KCl
  activation at 1 µM: 0%

## CSCC[C@H](NC(=O)[C@H](Cc1ccccc1)NC(=O)CNC(=O)[C@@H](C)NC(=O)[C@@H](N)Cc1ccc(O)cc1)C(=O)N1CCC[C@H]1C(=O)N[C@@H](CC(C)C)C(=O)N[C@@H](Cc1c[nH]c2ccccc12)C(=O)N(C)Cc1ccccc1 [TY026]
[7]
  Ki: 0.001 nM
[2]; [17]
  Emax: 93%
[4]
  IC50: 7.89 nM
[5]; [20]
  IC50: 86.7 nM

## CSCC[C@H](NC(=O)[C@H](Cc1ccccc1)NC(=O)CNC(=O)[C@@H](C)NC(=O)[C@@H](N)Cc1ccc(O)cc1)C(=O)N1CCC[C@H]1C(=O)N[C@@H](CC(C)C)C(=O)N[C@@H](Cc1c[nH]c2ccccc12)C(=O)OCc1ccccc1 [TY029]
[1]
  Ki: 1.3 nM
[2]; [19]
  EC50: 3.4 nM
[2]; [17]
  Emax: 98%
[3]; [18]
  Emax: 133%
[4]
  IC50: 7.62 nM
[5]; [20]
  IC50: 22.2 nM

## CSCC[C@H](NC(=O)[C@H](Cc1ccccc1)NC(=O)CNC(=O)[C@@H](C)NC(=O)[C@@H](N)Cc1ccc(O)cc1)C(=O)N1CCC[C@H]1C(=O)N[C@@H](CC(C)C)C(=O)N[C@@H](Cc1c[nH]c2ccccc12)C(=O)O [TY043]
[1]
  Ki: 1.1 nM
[2]; [17]
  Emax: 62%
[3]; [18]
  Emax: 36%
[4]
  IC50: 8.18 nM
[5]; [20]
  IC50: 272 nM
[6]; Table 39
  GPI/LMMP SP antagonist (Ke; nM): no shift

## CCCC[C@H](NC(=O)[C@H](Cc1ccccc1)NC(=O)CNC(=O)[C@@H](C)NC(=O)[C@@H](N)Cc1c(C)cc(O)cc1C)C(=O)N1CCC[C@H]1C(=O)N[C@@H](CC(C)C)C(=O)N[C@@H](Cc1c[nH]c2ccccc12)C(=O)NCc1cccc(C(F)(F)F)c1 [TY053]
[7]
  Ki: 1.04 nM
[3]; [18]
  Emax: 20%

Reference: patent publication US8026218B2, “Bifunctional analgesic compounds for opioid receptor agonists and neurokinin-1 receptor antagonists” (The University of Arizona, priority 2006, dated 2011)
